ChEMBL document CHEMBL1146635 (Bioorg Med Chem Lett, 2003)
pIC50: −log10 of the molar value.

Test system: not listed separately
Test: Cmax value determined in dog at a dose of […] by oral administration along with […] (10 mg/kg)
Assay type: ADME, organism-based, Canis lupus familiaris
Parameters: route oral
Conditions: in vivo

Row | SMILES | Cmax [µM]
1 | CC(C)(C)NC(=O)[C@@H]1CN(Cc2cccnc2)CCN1C[C@@H](O)C[C@@H](Cc1ccccc1)C(=O)N[C@H]1c2ccccc2C[C@H]1O.O | 11.4

Test system: Human immunodeficiency virus 1
Test: Viral spread inhibitory concentration against HIV-1 strain K-60C in MT-4 human T-lymphoid cells
Assay type: functional
Conditions: Human immunodeficiency virus 1, T-lymphoid; read-out: CIC95

Row | SMILES | IC95 [nM]
2 | O=C(N[C@H]1c2ccccc2OC[C@H]1O)[C@H](Cc1cccnc1)C[C@H](O)CN1CCN(Cc2ccn(-c3ccccc3F)c2)C[C@H]1C(=O)NCC(F)(F)F | 62
3 | O=C(N[C@H]1c2ccccc2OC[C@H]1O)[C@H](Cc1cccnc1)C[C@H](O)CN1CCN(Cc2ccn(-c3cccc(F)c3)c2)C[C@H]1C(=O)NCC(F)(F)F | 31
4 | O=C(N[C@H]1c2ccccc2OC[C@H]1O)[C@H](Cc1cccnc1)C[C@H](O)CN1CCN(Cc2ccn(-c3cc(Cl)c(Cl)c(Cl)c3)c2)C[C@H]1C(=O)NCC(F)(F)F | 31
5 | N#Cc1ccccc1-n1ccc(CN2CCN(C[C@@H](O)C[C@@H](Cc3cccnc3)C(=O)N[C@H]3c4ccccc4OC[C@H]3O)[C@H](C(=O)NCC(F)(F)F)C2)c1 | 250
6 | CC(C)(C)NC(=O)[C@@H]1CN(Cc2cccnc2)CCN1C[C@@H](O)C[C@@H](Cc1ccccc1)C(=O)N[C@H]1c2ccccc2C[C@H]1O.O | > 1000

Test system: Human immunodeficiency virus 1
Test: Viral spread inhibitory concentration against HIV-1 strain NL4-3 in MT-4 human T-lymphoid cells
Assay type: functional
Conditions: Human immunodeficiency virus 1, T-lymphoid; read-out: CIC95

Row | SMILES | IC95 [nM]
7 | O=C(N[C@H]1c2ccccc2OC[C@H]1O)[C@H](Cc1cccnc1)C[C@H](O)CN1CCN(Cc2ccn(-c3ccccc3F)c2)C[C@H]1C(=O)NCC(F)(F)F | 15
8 | O=C(N[C@H]1c2ccccc2OC[C@H]1O)[C@H](Cc1cccnc1)C[C@H](O)CN1CCN(Cc2ccn(-c3cccc(F)c3)c2)C[C@H]1C(=O)NCC(F)(F)F | 15
9 | O=C(N[C@H]1c2ccccc2OC[C@H]1O)[C@H](Cc1cccnc1)C[C@H](O)CN1CCN(Cc2ccn(-c3cc(Cl)c(Cl)c(Cl)c3)c2)C[C@H]1C(=O)NCC(F)(F)F | ≤ 8
10 | N#Cc1ccccc1-n1ccc(CN2CCN(C[C@@H](O)C[C@@H](Cc3cccnc3)C(=O)N[C@H]3c4ccccc4OC[C@H]3O)[C@H](C(=O)NCC(F)(F)F)C2)c1 | 46
11 | CC(C)(C)NC(=O)[C@@H]1CN(Cc2cccnc2)CCN1C[C@@H](O)C[C@@H](Cc1ccccc1)C(=O)N[C@H]1c2ccccc2C[C@H]1O.O | 50

Test system: Human immunodeficiency virus 1
Test: Viral spread inhibitory concentration against HIV-1 strain Q-60C in MT-4 human T-lymphoid cells
Assay type: functional
Conditions: Human immunodeficiency virus 1, T-lymphoid; read-out: CIC95

Row | SMILES | IC95 [nM]
12 | O=C(N[C@H]1c2ccccc2OC[C@H]1O)[C@H](Cc1cccnc1)C[C@H](O)CN1CCN(Cc2ccn(-c3ccccc3F)c2)C[C@H]1C(=O)NCC(F)(F)F | 31
13 | O=C(N[C@H]1c2ccccc2OC[C@H]1O)[C@H](Cc1cccnc1)C[C@H](O)CN1CCN(Cc2ccn(-c3cccc(F)c3)c2)C[C@H]1C(=O)NCC(F)(F)F | 15
14 | O=C(N[C@H]1c2ccccc2OC[C@H]1O)[C@H](Cc1cccnc1)C[C@H](O)CN1CCN(Cc2ccn(-c3cc(Cl)c(Cl)c(Cl)c3)c2)C[C@H]1C(=O)NCC(F)(F)F | ≤ 8
15 | N#Cc1ccccc1-n1ccc(CN2CCN(C[C@@H](O)C[C@@H](Cc3cccnc3)C(=O)N[C@H]3c4ccccc4OC[C@H]3O)[C@H](C(=O)NCC(F)(F)F)C2)c1 | 62
16 | CC(C)(C)NC(=O)[C@@H]1CN(Cc2cccnc2)CCN1C[C@@H](O)C[C@@H](Cc1ccccc1)C(=O)N[C@H]1c2ccccc2C[C@H]1O.O | > 1000

Test system: MT4
Test: Viral spread inhibitory concentration against HIV-1 strain V-18C in MT-4 human T-lymphoid cells
Assay type: functional
Conditions: read-out: CIC95

Row | SMILES | IC95 [nM]
17 | O=C(N[C@H]1c2ccccc2OC[C@H]1O)[C@H](Cc1cccnc1)C[C@H](O)CN1CCN(Cc2ccn(-c3cc(Cl)c(Cl)c(Cl)c3)c2)C[C@H]1C(=O)NCC(F)(F)F | 15
18 | CC(C)(C)NC(=O)[C@@H]1CN(Cc2cccnc2)CCN1C[C@@H](O)C[C@@H](Cc1ccccc1)C(=O)N[C@H]1c2ccccc2C[C@H]1O.O | > 1000

Target: Human immunodeficiency virus type 1 protease (Human immunodeficiency virus 1, UniProt Q72874)
Test: In vitro inhibition of HIV-1 protease (NL4-3 strain).
Conditions: not given

Row | SMILES | pIC50
19 | O=C(N[C@H]1c2ccccc2OC[C@H]1O)[C@H](Cc1cccnc1)C[C@H](O)CN1CCN(Cc2ccn(-c3ccccc3F)c2)C[C@H]1C(=O)NCC(F)(F)F | 9.80
20 | O=C(N[C@H]1c2ccccc2OC[C@H]1O)[C@H](Cc1cccnc1)C[C@H](O)CN1CCN(Cc2ccn(-c3cccc(F)c3)c2)C[C@H]1C(=O)NCC(F)(F)F | 10.30
21 | O=C(N[C@H]1c2ccccc2OC[C@H]1O)[C@H](Cc1cccnc1)C[C@H](O)CN1CCN(Cc2ccn(-c3cc(Cl)c(Cl)c(Cl)c3)c2)C[C@H]1C(=O)NCC(F)(F)F | 10.70
22 | N#Cc1ccccc1-n1ccc(CN2CCN(C[C@@H](O)C[C@@H](Cc3cccnc3)C(=O)N[C@H]3c4ccccc4OC[C@H]3O)[C@H](C(=O)NCC(F)(F)F)C2)c1 | 9.34

Test system: not listed separately
Test: Area under curve determined in dog at a dose of 10 mg/kg by oral administration along with […] (10 mg/kg)
Conditions: in vivo

Row | SMILES | AUC [µM·h]
23 | CC(C)(C)NC(=O)[C@@H]1CN(Cc2cccnc2)CCN1C[C@@H](O)C[C@@H](Cc1ccccc1)C(=O)N[C@H]1c2ccccc2C[C@H]1O.O | 12.5
